# Columns and labels:
# [1] = tested on: Bacillus subtilis spores; test: Germination inhibition by combination of CPC and D-alanine in sufficient nutrients (Example 3); assay type: cell-based; details: 1 mg/ml each; for variation of the turbidity of the spore suspension at 600 nm (germination): 25 g/l Bacto-LB broth plus AGFK germinator, 37° C., 2 hours; for inhibition at 1000 µg/mL: Bacillus subtilis, 0.5 h, LB broth plus AGFK, variation of OD600 for 30 minutes, test group 1 = 100%, test group 2 = 0%, read-out: germination inhibition rate
# Experimental: Thereupon, in order to examine germination-inhibitory effects by the combination of CPC and D-alanine which is a known germination-inhibitory substance, the following test groups were prepared. Spore suspension containing 0.1 mg/ml Bacillus subtilis spores, 20 mM Tris.HCl, pH 7.5. Spore suspension containing 0.1 mg/ml Bacillus subtilis, 25 g/l Bacto-LB broth, Miller (DIFCO) as sufficient nutrients, and 10 mM L-asparagine, 1 mM D-glucose, 1 mM D-fructose and 10 mM KCl (AGFK system) as germinator. Spore suspension as above containing the sufficient nutrients (Test Group 2) and further containing 1 mg/ml CPC. Spore suspension as above containing the sufficient nutrients (Test Group 2) and further containing 1 mg/ml D-alanine. Spore suspension as above containing the sufficient nutrients (Test Group 2) and further containing 1 mg/ml CPC and 1 mg/ml D-alanine. The above spore suspensions were allowed to react at 37° C. for 2 hours, and spore germination conditions were examined. The variation of the turbidity of each test group was measured through the above reaction at 600 nm using a spectrophotometer. […] After 2 hours, the turbidity became the same turbidity as the initial one, and growth subsequest to the germination (vegetative growth) was observed. […] Each inhibition rate was calculated based on the variation of OD600 value for 30 minutes from the start of measurement wherein the germination inhibition rate in the test group 1 is assigned 100% and that in the test group 2 is assigned 0%.
# [2] = Solubility of CPC (properties); assay type: physicochemical
# [3] = tested on: Bacillus subtilis spores; test: Spore germination-inhibitory effects by CPC, AGFK germinator (Example 2); assay type: cell-based; details: 1 mg/ml CPC, 37° C., 2 hours
# Experimental: The germination-inhibitory activity was measured as follows: ½ volume of a sample was allowed to react with ½ volume of spore suspension (0.2 mg/ml Bacillus subtilis spores, 40 mM Tris HCl, pH 7.5) containing germinator (20 mM L-asparagine, 2 mM D-glucose, 2 mM D-fructose, 20 mM KCl) at 37° C. The spores gradually darkened with germination increase, and turbidity of the suspension decreased. Thereupon, the turbidity of the spore suspension was measured at 600 nm using a spectrophotometer, and a germination rate was determined by calculating the rate of decrease of turbidity. In order to examine the germination-inhibitory effects of CPC, the following tests were conducted. Spore suspension containing 0.1 mg/ml Bacillus subtilis spores, 20 mM Tris.HCl, pH 7.5. Spore suspension as above further containing 10 mM L-asparagine, 1 mM D-glucose, 1 mM D-fructose and 10 mM KCl as germinator. Spore suspension as above containing the germination (Test Group 2) and further containing 1 mg/ml CPC. The above spore suspensions were allowed to react at 37° C. for 2 hours, and spore germination conditions were examined. The turbidity of each test group after 2 hours was measured at 600 nm using a spectrophotometer. In the test group 2, the turbidity of the spore suspension was decreased remarkably compared with the start of the reaction, and sufficient germination of spores was found. […]
SMILES,variation of the turbidity of the spore suspension at 600 nm (germination) [1],inhibition at 1000 µg/mL [1],solubility [2],spore germination observed by phase-contrast microscope ([3]; AGFK germinator),"spore germination by turbidity of the spore suspension at 600 nm ([3]; germinator 10 mM L-asparagine, 1 mM D-glucose, 1 mM D-fructose, 10 mM KCl)"
"NC(=O)c1cccc(C(=O)O)n1 [CPC, 6-carbamoyl-2-pyridine carboxylic acid]",growth subsequent to the germination was observed,9%,"Soluble in water, particularly alkaline water, and organic solvent, such as pyridine and DMSO",germination of spores was not recognized,germination was not observed
"C[C@@H](N)C(=O)O [D-alanine, reference compound]",growth subsequent to the germination was observed,16%,,,

# From patent US6506431B2, “Spore germination inhibitor and food containing the same” (Ajinomoto Co., Inc., priority 2000, dated 2003)
